Experimental data reported in patent US5688938A, “Calcium receptor-active molecules” (priority 1995, dated 1997).
Entries after “also recorded” stand apart in the source; their conditions may differ.

How the values were obtained:
[1] = serum/plasma Ca^2+, PTH and calcitonin in rats, oral; format: in vivo; conditions: rat, single oral dose, 3 hours
Description: Rats (male, Sprague-Dawley, 250-300 g) were fed standard rat chow and fasted overnight prior to the experiment. NPS R-467 was suspended in corn oil and administered as a single oral dose through a gavage needle. Three hours later a sample of blood was taken from the tail vein and assessed for ionized Ca^2+ levels.

[2] = tested on: human parathyroid calcium receptor (HuPCaR 5.2); assay: intracellular calcium in HEK293 cells transfected with HuPCaR 5.2; format: cell-based; conditions: Ca^2+ 10 mM, Mg^2+ 20 mM
Description: Cells obtained from the pool of hygromycin selected HEK293 cells transfected with Cep4B containing the HuPCaR 5.2 insert were plated on collagen coated Aklar squares which had been placed into individual wells of 12-well tissue culture plates. Two to six days later, medium was removed and the cells washed with balanced salt solution and 1 ml of buffer containing 1 μM fura2-AM, 1 mM CaCl2 and 0.1% BSA and […]. Measurements of fluorescence in response to calcium receptor agonists were performed at 37° C. in a spectrofluorimeter using excitation and emission wavelengths of 340 and 510 nm, respectively. For signal calibration, Fmax was determined after addition of ionomycin (4.0 μM) and the apparent Fmin was determined by addition of 0.3M EGTA, 2.5M Tris-HCl; pH 10.

[3] = tested on: parathyroid cell calcium receptor; assay: Cl^- current in Xenopus oocytes injected with (bovine) parathyroid cell mRNA; format: cell-based; conditions: 30 μM
Description: Following incubation, an oocyte was placed into a 100-μl plastic chamber and superfused with MBS at a flow rate of 0.5 ml/min using a peristaltic pump. Test molecules or inorganic polycations were added by rapidly moving the tubing into different buffers. Recording and current passing electrodes were constructed from thin-wall capillary tubing pulled to a resistance of 1-3 Mohms and filled with 3M KCl. […] Currents were recorded directly onto a strip chart recorder.

[4] = target: T1, parathyroid cell calcium receptor (Bos taurus, UniProt P35384); assay: cell-based; format: cell-based
T1 sequence (P35384 21-1085 limits assumed): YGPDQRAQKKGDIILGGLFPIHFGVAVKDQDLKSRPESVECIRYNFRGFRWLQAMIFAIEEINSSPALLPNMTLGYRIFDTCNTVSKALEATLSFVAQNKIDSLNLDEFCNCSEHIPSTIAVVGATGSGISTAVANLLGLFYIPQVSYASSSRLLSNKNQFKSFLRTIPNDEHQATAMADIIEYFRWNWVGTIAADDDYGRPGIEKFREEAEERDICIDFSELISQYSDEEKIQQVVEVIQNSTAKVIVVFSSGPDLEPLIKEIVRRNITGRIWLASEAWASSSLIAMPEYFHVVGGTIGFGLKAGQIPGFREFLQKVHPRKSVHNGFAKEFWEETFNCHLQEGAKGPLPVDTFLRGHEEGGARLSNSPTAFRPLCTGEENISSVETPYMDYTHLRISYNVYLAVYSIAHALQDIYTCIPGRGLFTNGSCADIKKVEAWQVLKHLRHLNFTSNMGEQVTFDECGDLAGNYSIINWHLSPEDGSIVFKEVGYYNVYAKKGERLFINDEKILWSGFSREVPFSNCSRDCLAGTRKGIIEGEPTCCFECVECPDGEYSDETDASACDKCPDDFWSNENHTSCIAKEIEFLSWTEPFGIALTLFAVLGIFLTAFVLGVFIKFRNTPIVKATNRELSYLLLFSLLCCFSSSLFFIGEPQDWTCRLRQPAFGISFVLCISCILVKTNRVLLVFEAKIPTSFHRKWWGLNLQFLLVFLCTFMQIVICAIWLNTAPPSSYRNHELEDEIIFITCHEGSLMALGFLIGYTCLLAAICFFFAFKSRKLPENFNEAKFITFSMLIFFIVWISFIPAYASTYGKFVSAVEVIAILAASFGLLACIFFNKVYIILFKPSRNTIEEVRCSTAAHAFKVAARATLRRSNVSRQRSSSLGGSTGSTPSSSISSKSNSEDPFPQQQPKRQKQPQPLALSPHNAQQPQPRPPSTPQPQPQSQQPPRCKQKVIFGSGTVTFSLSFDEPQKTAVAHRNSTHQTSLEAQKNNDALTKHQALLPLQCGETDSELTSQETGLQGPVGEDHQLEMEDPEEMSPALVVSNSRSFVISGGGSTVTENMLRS
Description: For example,.bovine parathyroid cells loaded with fura-2 are initially suspended in buffer containing 0.5 mM CaCl2. A test substance is added to the cuvette in a small volume (5-15 μl) and changes in the fluorescence signal are measured. Cumulative increases in the concentration of the test substance are made in the cuvette until some predetermined concentration is achieved or no further changes in fluorescence are noted.
This section describes procedures used to obtain and treat parathyroid cells from calves and humans. […] Human parathyroid glands, were obtained from patients undergoing surgical removal of parathyroid tissue for primary or uremic hyperparathyroidism (uremic HPT), and were treated similarly to bovine tissue.
Glands were trimmed of excess fat and connective tissue and then minced with fine scissors into cubes approximately 2-3 mm on a side. Dissociated parathyroid cells were prepared by collagenase digestion and then purified by centrifugation in Percoll buffer. The resultant parathyroid cell preparation was essentially devoid of red blood cells, adipocytes, and capillary tissue as assessed by phase contrast microscopy and Sudan black B staining. Dissociated and purified parathyroid cells were present as small clusters containing 5 to 20 cells.
The cells were then transferred to plastic flasks (75 or 150 cm^2 ; Falcon) and incubated overnight at 37° C. in a humid atmosphere of 5% CO2. No serum is added to these overnight cultures, since its presence allows the cells to attach to the plastic, undergo proliferation, and dedifferentiate. Cells cultured under the above conditions were readily removed from the flasks by decanting, and show the same viability as freshly prepared cells.
The cells were then pelleted, resuspended in the same buffer, but lacking the ester, and incubated a further 15 minutes at 37° C. The cells were subsequently washed twice with PCB containing 0.5 mM CaCl2 and 0.5% BSA and maintained at room temperature (about 20° C.). Immediately before use, the cells were diluted five-fold with prewarmed 0.5mM CaCl2 -PCB to obtain a final BSA concentration of 0.1%. The concentration of cells in the cuvette used for fluorescence recording was 1-2×10^6 /ml.
The fluorescence of indicator-loaded cells was measured at 37° C. in a spectrofluorimeter (Biomedical Instrumentation Group, University of Pennsylvania, Philadelphia, Pa.) equipped with a thermostated cuvette holder and magnetic stirrer using excitation and emission wavelengths of 340 and 510 nm, respectively. […] Leakage of dye is dependent on temperature and most occurs within the first 2 minutes after warming the cells in the cuvette. Dye leakage increases only very slowly thereafter. To correct the calibration for dye leakage, cells were placed in the cuvette and stirred at 37° C. for 2-3 minutes. The cell suspension was then removed, the cells pelleted, and the supernatant returned to a clean cuvette. […] This estimate was subtracted from the apparent Fmin.
Dissociated bovine parathyroid cells were purified on gradients of Percoll and cultured overnight in serum-free medium. […] That is,

[5] = target: T2, human parathyroid cell calcium receptor (Homo sapiens, UniProt P41180); assay: Cl^- current in Xenopus oocytes expressing cloned human parathyroid calcium receptor; format: cell-based; conditions: pHuPCaR 5.2 and 4.0
T2 construct: cRNA injected in Xenopus oocytes
T2 sequence (P41180 20-1078 R990G/E1011Q): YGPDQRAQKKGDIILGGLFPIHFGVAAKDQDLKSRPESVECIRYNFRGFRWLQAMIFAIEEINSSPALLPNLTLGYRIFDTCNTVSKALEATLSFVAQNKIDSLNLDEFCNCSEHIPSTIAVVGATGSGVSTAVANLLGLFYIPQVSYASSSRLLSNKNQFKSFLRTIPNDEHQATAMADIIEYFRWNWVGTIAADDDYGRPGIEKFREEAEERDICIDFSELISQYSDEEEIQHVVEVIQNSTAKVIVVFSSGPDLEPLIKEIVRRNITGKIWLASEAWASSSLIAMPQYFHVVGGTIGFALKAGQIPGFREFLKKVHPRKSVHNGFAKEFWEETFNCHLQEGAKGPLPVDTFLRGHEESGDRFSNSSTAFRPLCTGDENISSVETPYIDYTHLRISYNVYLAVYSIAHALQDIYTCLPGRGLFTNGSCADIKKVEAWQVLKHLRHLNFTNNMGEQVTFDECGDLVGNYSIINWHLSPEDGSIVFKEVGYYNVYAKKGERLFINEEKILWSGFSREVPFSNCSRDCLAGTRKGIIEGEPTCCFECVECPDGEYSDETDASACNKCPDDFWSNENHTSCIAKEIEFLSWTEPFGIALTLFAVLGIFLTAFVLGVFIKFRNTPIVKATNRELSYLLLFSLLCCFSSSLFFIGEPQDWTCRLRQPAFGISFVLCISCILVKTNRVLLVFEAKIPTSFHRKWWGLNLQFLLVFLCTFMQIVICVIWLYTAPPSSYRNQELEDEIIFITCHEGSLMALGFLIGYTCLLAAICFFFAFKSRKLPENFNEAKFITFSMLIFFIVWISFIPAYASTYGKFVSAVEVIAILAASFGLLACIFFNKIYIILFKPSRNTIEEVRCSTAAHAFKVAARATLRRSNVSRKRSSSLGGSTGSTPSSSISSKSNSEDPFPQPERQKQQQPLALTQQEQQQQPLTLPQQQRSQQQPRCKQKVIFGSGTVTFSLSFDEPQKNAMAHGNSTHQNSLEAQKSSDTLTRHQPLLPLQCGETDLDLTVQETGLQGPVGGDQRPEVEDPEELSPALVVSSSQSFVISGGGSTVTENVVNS
Description: Representative cDNA inserts for both size classes were subcloned into the plasmid vector pBluescript SK. Linearization followed by in vitro transcription using T7 RNA polymerase produced cRNA transcripts. The cRNA transcripts were injected into Xenopus oocytes (150 ng/μl RNA; 50 nl/oocyte) for functional analysis. Following incubation periods of 2-4 days, the oocytes were assayed for the presence of functional calcium receptors. Both clone types gave rise to functional calcium receptors as assessed by the stimulation of calcium-activated chloride currents upon addition of appropriate calcium receptor agonists. […] Thus, both clones encode a functional, human parathyroid cell calcium receptor.
Xenopus oocytes were injected with pHuPCaR 5.2, the 5.2 Kb cDNA encoding a parathyroid cell calcium receptor derived from a human parathyroid cell adenoma. (See Example 27.) After two to three days, Cl^- currents were measured in the oocytes using a two-electrode voltage clamp.

[6] = serum ionized Ca^2+ in parathyroidectomized rats; format: in vivo, rat; conditions: 10 mg/kg i.p., 6 hours
Description: To determine the primary target tissue upon which NPS R-467 acts to cause a hypocalcemic response, the parathyroid glands in rats were surgically removed. Animals receiving a total parathyroidectomy become hypocalcemic and are largely dependent upon dietary calcium to maintain serum Ca^2+ homeostasis.

[7] = serum/blood calcium, PTH, albumin and phosphate in rats, intraperitoneal; format: in vivo, rat; conditions: 10 mg/kg i.p., 1 hour, normal diet
Description: Compounds shown to activate the bovine parathyroid cell calcium receptor in vitro were tested for hypocalcemic activity in vivo. […] […] […] Serum total calcium, albumin and phosphate were measured by techniques well known in the art.

SMILES: COc1cccc([C@@H](C)NCCCc2ccccc2)c1 [NPS R-467, (R)-(+)-N-(3-phenylpropyl)-α-methyl-3-methoxybenzylamine]
- reduction in serum ionized Ca^2+ [1]: dose-dependent reduction in serum levels of ionized Ca^2+
- increase in intracellular calcium [2]: Robust increases in intracellular calcium
- Cl^- current in oocytes [3]: rapid increase
- [Ca^2+]i response in presence of 0.5 mM extracellular Ca^2+ [4]: rapid and transient increase in [Ca^2+ ]i
- [Ca^2+]i response in Ca^2+-free buffer after 10 μM neomycin ([4]; 30 μM NPS R-467): transient increase in [Ca^2+ ]i
- [Ca^2+]i response in Ca^2+-free buffer after 100 μM neomycin ([4]; 30 μM NPS R-467): did not cause an increase in [Ca^2+ ]i
- [Ca^2+]i response in Ca^2+-free buffer ([4]; no extracellular Ca^2+, NPS R-467 30 μM): abolished; also recorded: no increase in [Ca^2+ ]i
- activation of oocyte-expressed human receptor [5]: activated the oocyte-expressed receptor at about the same concentrations
- change in serum ionized Ca^2+ [6]: did not cause any change
- decrease in serum ionized Ca^2+ from control level [7]: 22%
